Measured values from ChEMBL document CHEMBL4808176, “Optimization of Truncated Glucagon Peptides to Achieve Selective, High Potency, Full Antagonists” (J Med Chem, 2021).
The source made the active and inactive calls. The rule behind the calls is not given here. Peptide text beside a SMILES is read from it.

What was measured:
[1] = Half life in C57BL/6 mouse at 1500 nmol/kg, sc measured upto 48 hrs by LC-MS analysis; format: ADME, organism-based; conditions: in vivo
Glucagon receptor [2] = target: T1, Glucagon receptor (Homo sapiens, UniProt P47871); assay: Antagonist activity at human GCGR expressed in HEK293 cells assessed as inhibition of glucogon-induced cAMP production; format: functional, cell-based
T1 sequence (P47871 whole entry): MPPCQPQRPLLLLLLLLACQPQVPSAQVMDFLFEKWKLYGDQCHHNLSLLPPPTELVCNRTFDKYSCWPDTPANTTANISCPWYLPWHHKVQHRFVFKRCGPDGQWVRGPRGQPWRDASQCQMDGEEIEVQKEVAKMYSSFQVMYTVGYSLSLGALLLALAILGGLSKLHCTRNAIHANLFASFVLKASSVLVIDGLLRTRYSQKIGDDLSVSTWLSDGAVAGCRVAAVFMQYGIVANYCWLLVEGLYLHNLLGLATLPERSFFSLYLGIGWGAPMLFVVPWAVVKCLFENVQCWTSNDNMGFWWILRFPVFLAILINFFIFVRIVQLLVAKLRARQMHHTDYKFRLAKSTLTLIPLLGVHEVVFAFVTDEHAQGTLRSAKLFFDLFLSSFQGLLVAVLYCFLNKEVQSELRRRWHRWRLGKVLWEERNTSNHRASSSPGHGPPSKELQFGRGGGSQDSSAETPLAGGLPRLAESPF

[3] = target: Glucagon receptor (Mus musculus) (UniProt Q61606); assay: Antagonist activity at mouse GCGR expressed in CHO-K1 cells assessed as inhibition of glucogon-induced cAMP production relative to control; format: functional, cell-based; conditions: filed as antagonist, concentration not given here
Chain of Glucagon receptor (Mus musculus) (Q61606 whole entry): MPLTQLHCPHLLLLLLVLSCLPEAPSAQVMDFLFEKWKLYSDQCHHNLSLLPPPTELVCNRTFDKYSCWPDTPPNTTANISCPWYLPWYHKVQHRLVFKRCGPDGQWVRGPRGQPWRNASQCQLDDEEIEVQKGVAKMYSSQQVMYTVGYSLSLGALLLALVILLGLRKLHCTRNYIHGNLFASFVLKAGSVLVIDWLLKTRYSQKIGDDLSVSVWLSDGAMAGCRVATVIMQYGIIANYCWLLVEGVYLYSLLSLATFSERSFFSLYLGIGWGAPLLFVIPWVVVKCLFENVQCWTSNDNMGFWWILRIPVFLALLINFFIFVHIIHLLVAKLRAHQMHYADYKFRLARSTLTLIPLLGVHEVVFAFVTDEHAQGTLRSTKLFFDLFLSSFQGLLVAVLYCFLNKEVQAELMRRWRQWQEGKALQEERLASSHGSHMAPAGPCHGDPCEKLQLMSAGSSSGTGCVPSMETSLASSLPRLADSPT

[4] = AUC in C57BL/6 mouse at 1500 nmol/kg, sc measured upto 48 hrs by LC-MS analysis; format: ADME, organism-based; design: route subcutaneous, dose 1500 nmol/kg, time <=48; conditions: in vivo
[5] = target: T2, Gastric inhibitory polypeptide receptor (Mus musculus, UniProt Q0P543); assay: Antagonist activity at mouse GIPR expressed in CHO-K1 cells assessed as inhibition of GIP-induced cAMP production; format: cell-based
T2 sequence (Q0P543 whole entry): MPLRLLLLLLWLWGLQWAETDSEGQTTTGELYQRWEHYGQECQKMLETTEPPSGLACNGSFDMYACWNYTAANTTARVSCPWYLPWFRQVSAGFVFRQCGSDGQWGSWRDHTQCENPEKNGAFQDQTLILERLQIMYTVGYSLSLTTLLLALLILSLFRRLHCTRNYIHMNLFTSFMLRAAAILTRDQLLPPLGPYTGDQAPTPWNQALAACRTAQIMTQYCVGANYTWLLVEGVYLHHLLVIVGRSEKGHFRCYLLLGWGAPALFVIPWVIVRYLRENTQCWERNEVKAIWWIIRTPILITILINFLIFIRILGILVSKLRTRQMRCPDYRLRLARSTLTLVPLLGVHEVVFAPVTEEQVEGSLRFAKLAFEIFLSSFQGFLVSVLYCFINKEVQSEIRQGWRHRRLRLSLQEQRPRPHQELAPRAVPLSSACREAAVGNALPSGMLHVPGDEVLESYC

[6] = target: Glucagon-like peptide 1 receptor (Homo sapiens, UniProt P43220); assay: Antagonist activity at human GLP-1R expressed in HEK293 cells assessed as inhibition of GLP1-induced cAMP production; format: functional, cell-based
Chain of Glucagon-like peptide 1 receptor (Homo sapiens, UniProt P43220) (P43220 whole entry): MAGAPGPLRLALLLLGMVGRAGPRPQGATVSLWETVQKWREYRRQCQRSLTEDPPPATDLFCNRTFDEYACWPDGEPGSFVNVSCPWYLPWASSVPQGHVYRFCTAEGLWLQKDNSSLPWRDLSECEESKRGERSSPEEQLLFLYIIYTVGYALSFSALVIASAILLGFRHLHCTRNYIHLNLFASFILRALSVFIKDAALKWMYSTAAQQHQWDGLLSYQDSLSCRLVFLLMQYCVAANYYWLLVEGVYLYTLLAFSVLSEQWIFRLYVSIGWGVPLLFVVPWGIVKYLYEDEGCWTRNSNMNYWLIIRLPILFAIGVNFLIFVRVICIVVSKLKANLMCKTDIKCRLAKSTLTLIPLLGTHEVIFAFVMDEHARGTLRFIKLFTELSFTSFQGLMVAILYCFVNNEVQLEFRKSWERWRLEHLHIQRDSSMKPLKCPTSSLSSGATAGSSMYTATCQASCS

[7] = target: T3, Glucagon-like peptide 1 receptor (Mus musculus, UniProt O35659); assay: Antagonist activity at mouse GLP1R expressed in CHO-K1 cells assessed as inhibition of GLP1-induced cAMP production; format: functional, cell-based
T3 sequence (O35659 whole entry): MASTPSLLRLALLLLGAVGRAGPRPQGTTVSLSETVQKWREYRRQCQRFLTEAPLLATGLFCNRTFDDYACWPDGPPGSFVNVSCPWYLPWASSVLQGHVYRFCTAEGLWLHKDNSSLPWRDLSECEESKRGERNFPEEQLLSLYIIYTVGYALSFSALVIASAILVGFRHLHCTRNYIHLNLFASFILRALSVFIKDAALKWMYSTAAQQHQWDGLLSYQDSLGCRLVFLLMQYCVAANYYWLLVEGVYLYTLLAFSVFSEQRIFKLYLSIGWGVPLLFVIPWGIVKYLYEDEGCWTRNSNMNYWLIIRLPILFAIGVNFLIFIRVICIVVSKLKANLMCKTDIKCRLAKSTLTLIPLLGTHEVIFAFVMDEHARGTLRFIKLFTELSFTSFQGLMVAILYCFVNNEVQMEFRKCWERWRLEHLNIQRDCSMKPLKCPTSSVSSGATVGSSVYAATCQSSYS

[8] = Cmax in C57BL/6 mouse at 1500 nmol/kg, sc measured upto 48 hrs by LC-MS analysis; format: ADME, organism-based; design: route subcutaneous, dose 1500 nmol/kg, time <=48; conditions: in vivo
[9] = Chemical stability of compound in PBS buffer incubated for 5 to 7 days by LC-MS analysis; format: physicochemical; conditions: time 5-7 day
[10] = target: T4, Gastric inhibitory polypeptide receptor (Homo sapiens) (UniProt P48546); assay: Antagonist activity at human GIPR expressed in HEK293 cells assessed as inhibition of GIP-induced cAMP production relative to control; format: functional, cell-based; conditions: filed as antagonist, concentration not given here
T4 sequence (whole entry): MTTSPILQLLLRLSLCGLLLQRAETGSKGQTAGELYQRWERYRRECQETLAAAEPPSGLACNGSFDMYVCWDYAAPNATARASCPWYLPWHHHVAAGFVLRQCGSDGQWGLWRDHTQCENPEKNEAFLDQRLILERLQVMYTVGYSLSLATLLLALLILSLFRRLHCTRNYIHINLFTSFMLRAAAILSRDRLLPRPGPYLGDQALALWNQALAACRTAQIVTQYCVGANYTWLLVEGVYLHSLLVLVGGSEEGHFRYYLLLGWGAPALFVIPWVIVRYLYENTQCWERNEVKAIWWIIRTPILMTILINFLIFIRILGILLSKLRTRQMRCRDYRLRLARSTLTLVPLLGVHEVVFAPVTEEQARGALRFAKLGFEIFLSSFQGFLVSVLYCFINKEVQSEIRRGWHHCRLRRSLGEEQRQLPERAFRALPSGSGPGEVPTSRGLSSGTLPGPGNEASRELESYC

[11] = target: T5, Glucagon-like peptide 1 receptor (Mus musculus) (UniProt O35659); assay: Antagonist activity at mouse GLP1R expressed in CHO-K1 cells assessed as inhibition of GLP1-induced cAMP production relative to control; format: functional, cell-based; conditions: filed as antagonist, concentration not given here
T5 sequence (whole entry): T3 sequence (O35659 whole entry)

Mus musculus [12] = assay: Inhibition of IUB288-induced glucose elevation in C57BL/6 mouse at 1500 nmol/kg, sc pretreated for 24 hrs followed by IUB288 stimulation and measured upto 4 hrs; format: functional, organism-based; conditions: time 28.0 hrs
[13] = Toxicity in C57BL/6 mouse assessed as adverse local and systemic responses at 1500 nmol/kg, sc; conditions: in vivo
[14] = target: T6, Gastric inhibitory polypeptide receptor (Homo sapiens, UniProt P48546); assay: Antagonist activity at human GIPR expressed in HEK293 cells assessed as inhibition of GIP-induced cAMP production; format: functional, cell-based
T6 sequence (P48546 whole entry): T4 sequence (whole entry)

Mus musculus [15] = assay: Inhibition of IUB288-induced glucose elevation in C57BL/6 mouse at 1500 nmol/kg, sc pretreated for 4 to 8 hrs followed by IUB288 stimulation and measured upto 4 hrs; format: functional, organism-based; conditions: time 8-12 hrs
Glucagon receptor [16] = target: T1, Glucagon receptor; assay: Antagonist activity at human GCGR expressed in HEK293 cells assessed as inhibition of glucogon-induced cAMP production relative to control; format: functional, cell-based; conditions: filed as antagonist, concentration not given here
[17] = target: T7, Gastric inhibitory polypeptide receptor (Mus musculus) (UniProt Q0P543); assay: Antagonist activity at mouse GIPR expressed in CHO-K1 cells assessed as inhibition of GIP-induced cAMP production relative to control; format: cell-based; conditions: filed as antagonist, concentration not given here
T7 sequence (whole entry): T2 sequence (Q0P543 whole entry)

Glucagon receptor [18] = target: Glucagon receptor (Mus musculus, UniProt Q61606); assay: Antagonist activity at mouse GCGR expressed in CHO-K1 cells assessed as inhibition of glucogon-induced cAMP production; format: functional, cell-based
Chain of Glucagon receptor (Mus musculus, UniProt Q61606) (Q61606 whole entry): as the sequence (Q61606 whole entry) above

Glucagon receptor [19] = target: T1, Glucagon receptor; assay: Antagonist activity at human GCGR expressed in HEK293 cells assessed as inhibition of glucogon-induced cAMP production by schild plot analysis; format: functional, cell-based; conditions: filed as antagonist, dose 0.1-1.6 µM
Glucagon receptor [20] = target: T1, Glucagon receptor; assay: Displacement of 125I-glucagon from human GCGR expressed in HEK293 cells membranes incubated for 6 hrs by liquid scintillation counting method; format: cell membranes, Membrane
[21] = target: Glucagon receptor (Rattus norvegicus) (UniProt P30082); assay: Displacement of 125I-glucagon from GCGR of rat liver membrane; format: cell membranes
Chain of Glucagon receptor (Rattus norvegicus) (P30082 whole entry): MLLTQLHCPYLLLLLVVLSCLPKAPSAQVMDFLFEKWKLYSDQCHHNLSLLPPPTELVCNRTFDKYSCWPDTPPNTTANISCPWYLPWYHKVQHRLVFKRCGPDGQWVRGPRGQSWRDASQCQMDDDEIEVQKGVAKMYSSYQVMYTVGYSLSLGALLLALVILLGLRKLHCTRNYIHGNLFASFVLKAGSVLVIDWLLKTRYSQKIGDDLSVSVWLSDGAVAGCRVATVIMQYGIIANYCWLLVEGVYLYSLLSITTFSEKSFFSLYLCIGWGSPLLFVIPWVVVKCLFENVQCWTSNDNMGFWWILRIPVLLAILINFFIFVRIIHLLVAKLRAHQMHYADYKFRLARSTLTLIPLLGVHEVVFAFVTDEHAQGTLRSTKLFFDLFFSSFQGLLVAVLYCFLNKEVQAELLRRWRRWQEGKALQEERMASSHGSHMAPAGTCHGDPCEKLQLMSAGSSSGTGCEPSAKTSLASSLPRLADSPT

CCCCCCCCCCCCCCCC(=O)N[C@@H](CCC(=O)N[C@@H](CCC(=O)NCCCC[C@H](NC(=O)[C@H](CC(=O)O)NC(=O)[C@H](CO)NC(=O)[C@@H](NC(=O)[C@@H](O)Cc1ccccc1)[C@@H](C)O)C(=O)N[C@@H](CO)C(=O)N[C@@H](CCCCN)C(=O)N[C@@H](Cc1ccc(O)cc1)C(=O)N[C@@H](CC(C)C)C(=O)N[C@@H](CC(=O)O)C(=O)N[C@@H](CO)C(=O)N[C@@H](CCCNC(=N)N)C(=O)N[C@@H](CCCNC(=N)N)C(=O)N[C@@H](C)C(=O)N[C@@H](CCC(N)=O)C(=O)N[C@@H](CC(=O)O)C(=O)N[C@@H](Cc1ccccc1)C(=O)N[C@H](C(=O)N[C@@H](CCC(N)=O)C(=O)N[C@@H](Cc1c[nH]c2ccccc12)C(=O)N[C@@H](CC(C)C)C(=O)N[C@@H](CCSC)C(=O)N[C@@H](CC(=O)O)C(=O)N[C@H](C(N)=O)[C@@H](C)O)C(C)C)C(=O)O)C(=O)O (HELM PEPTIDE1{[O=C([C@@H](O)Cc1ccccc1)[*:2]].T.S.D.K.S.K.Y.L.D.S.R.R.A.Q.D.F.V.Q.W.L.M.D.T.[am]}|PEPTIDE2{[CCCCCCCCCCCCCCCC(=O)[*:2]].[gGlu].[gGlu]}$PEPTIDE1,PEPTIDE2,5:R3-3:R2$$$V2.0)
half-life [1]: 6.73 h
IC50 (Glucagon receptor [2]): 0.00043 µM
inhibition [3]: 92%
AUC at 48 h [4]: 37.4 µM·h
IC50 [5]: 0.125 µM
IC50 [6]: 0.099 µM
IC50 [7]: 0.131 µM
Cmax [8]: 3.31 µM
Stabilty [9]: Stable
inhibition [10]: 96%
inhibition [11]: 99%
inhibition (Mus musculus [12]): Active
Activity [13]: Non-Toxic
IC50 [14]: 0.06 µM
inhibition (Mus musculus [15]): Active
inhibition (Glucagon receptor [16]): 100%
inhibition [17]: 97%
IC50 (Glucagon receptor [18]): 0.00053 µM

H-FTSEYSKYLDSRRAQDFVQWLMNT-NH2
IC50 (Glucagon receptor [2]): 0.0791 µM
Activity (Glucagon receptor [19]): Dose-Dependent Effect

H-TSEYSKYLDSRRAQDFVQWLMNT-NH2
IC50 (Glucagon receptor [20]): 10 µM
Activity [21]: 0.33%
